Experiment [1] has as its system S. pneumoniae. The experiment can be described thus: Kill or inhibit growth/proliferation; morphology, biofilm and growth disruption (Tables 5, 6). Format: cell-based, Streptococcus pneumoniae. Details: key: A: Peptide aggregates; B: Less hyphal formation; Clumps; Diffuse clumps and small polyps; F: Diffuse growth; H: Thin; I: Growth inhibition; Microcolony formation; Rippled; Small polyps; Thick; W: Halo formation on top, microlonies on bottom.

Experiment [2] relates to C. difficile. As to the kind of experiment: MIC (broth microdilution). Format: cell-based, Clostridium difficile. The procedure: (§1) Typically, the in vitro antimicrobial activity of antimicrobial agents is tested using standard NCCLS bacterial inhibition assays, or MIC tests (see, National Committee on Clinical Laboratory Standards “Performance Standards for Antimicrobial Susceptibility Testing,” NCCLS Document M100-S5 Vol. 14, No. 16, December 1994; “Methods for dilution antimicrobial susceptibility test for bacteria that grow aerobically-Third Edition,” Approved Standard M7-A3, National Committee for Clinical Standards, Villanova, Pa.).
(§2) Briefly, ˜1×10^5 cfu/mL bacteria were diluted in TH (S. mutans), or Mueller-Hinton (MH) broth (all other organisms) and distributed to 96-well plates. Serially-diluted (2-fold) peptides were then added and the plates incubated at 37° C. for 18-24 h. […] All experiments were conducted 10 times.
Background: In broth dilution the organism is exposed to a series of concentrations in liquid medium.

In experiment [3] the test system is microorganisms. The experiment can be described thus: Peptides having multiple activities (targeting/binding, antimicrobial, growth or phenotype altering). From the text: In certain embodiments, peptides described herein can have multiple activities. Thus for example, a peptide can have both binding/targeting activity and antimicrobial activity. Such peptides can be used, e.g., in a chimeric construct, for any or all of these properties. Thus, for example, a peptide designated “B” in Table 8 can be used as a targeting peptide. If it is also designated G or M it can also be used for antimicrobial activity.

The subject of experiment [4] is microorganisms (e.g., bacteria, yeasts, fungi). As to the kind of experiment: Targeting peptide binding to target microorganisms (Table 3). The note with it: microorganism(s) the targeting peptide binds, preferably 1x PBS.
Experiment [5] deals with C. jejuni. The experiment can be described thus: Kill or inhibit growth/proliferation; morphology, biofilm and growth disruption (Tables 5, 6). Format: cell-based, Campylobacter jejuni. Details: key: A: Peptide aggregates; B: Less hyphal formation; Clumps; Diffuse clumps and small polyps; F: Diffuse growth; H: Thin; I: Growth inhibition; Microcolony formation; Rippled; Small polyps; Thick; W: Halo formation on top, microlonies on bottom.

Experiment [6] relates to S. epidermidis. Format: cell-based, Staphylococcus epidermidis. The method in brief: (§3)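 Peptides are serially diluted 2-fold and added to Mueller-Hinton broth cultures at ˜1×10^5 cfu/mL, then incubated at 37° C. for 18-24 h.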
Experiment [7] relates to MRSA. The experiment can be described thus: Kill or inhibit growth/proliferation; morphology, biofilm and growth disruption (Tables 5, 6). Format: cell-based, Methicillin-resistant Staphylococcus aureus. Details: key: A: Peptide aggregates; B: Less hyphal formation; Clumps; Diffuse clumps and small polyps; F: Diffuse growth; H: Thin; I: Growth inhibition; Microcolony formation; Rippled; Small polyps; Thick; W: Halo formation on top, microlonies on bottom.

Experiment [8] concerns B. subtilis. As to the kind of experiment: MIC (broth microdilution). Format: cell-based, Bacillus subtilis. Summed up: as §3
In experiment [9] the test system is P. aeruginosa. The experiment can be described thus: Kill or inhibit growth/proliferation; morphology, biofilm and growth disruption (Tables 5, 6). Format: cell-based, Pseudomonas aeruginosa. The arrangement: key: A: Peptide aggregates; B: Less hyphal formation; Clumps; Diffuse clumps and small polyps; F: Diffuse growth; H: Thin; I: Growth inhibition; Microcolony formation; Rippled; Small polyps; Thick; W: Halo formation on top, microlonies on bottom.

Experiment [10] has as its system C. jeikeium. Described as above. Format: cell-based, Corynebacterium jeikeium. Details: key: A: Peptide aggregates; B: Less hyphal formation; Clumps; Diffuse clumps and small polyps; F: Diffuse growth; H: Thin; I: Growth inhibition; Microcolony formation; Rippled; Small polyps; Thick; W: Halo formation on top, microlonies on bottom.
In experiment [11] the test system is S. epidermidis. The experiment is described as above. Format: cell-based, Staphylococcus epidermidis. Details: key: A: Peptide aggregates; B: Less hyphal formation; Clumps; Diffuse clumps and small polyps; F: Diffuse growth; H: Thin; I: Growth inhibition; Microcolony formation; Rippled; Small polyps; Thick; W: Halo formation on top, microlonies on bottom.
The test system of experiment [12] is C. jeikeium. As to the kind of experiment: MIC (broth microdilution). Type of experiment: cell-based, Corynebacterium jeikeium. The procedure:
as §1, §2

Experiment [13] deals with C. albicans. The experiment can be described thus: Kill or inhibit growth/proliferation; morphology, biofilm and growth disruption (Tables 5, 6). Format: cell-based, Candida albicans. The arrangement: key: A: Peptide aggregates; B: Less hyphal formation; Clumps; Diffuse clumps and small polyps; F: Diffuse growth; H: Thin; I: Growth inhibition; Microcolony formation; Rippled; Small polyps; Thick; W: Halo formation on top, microlonies on bottom.

For experiment [14], the system named is T. rubrum. As to the kind of experiment: MIC (broth microdilution). Type of experiment: cell-based, Trichophyton rubrum. The procedure: as §1, §2
Experiment [15] deals with A. niger. The experiment can be described thus: MIC (broth microdilution). Type of experiment: cell-based, Aspergillus niger. Summed up:
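Organisms were diluted to ˜1×10^5 cfu/mL in Mueller-Hinton broth and dispensed into plates. Peptides were added as 2-fold serial dilutions. Plates were then held at 37° C. for 18-24 h.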

The test system of experiment [16] is B. subtilis. As to the kind of experiment: Kill or inhibit growth/proliferation; morphology, biofilm and growth disruption (Tables 5, 6). Format: cell-based, Bacillus subtilis. The arrangement: key: A: Peptide aggregates; B: Less hyphal formation; Clumps; Diffuse clumps and small polyps; F: Diffuse growth; H: Thin; I: Growth inhibition; Microcolony formation; Rippled; Small polyps; Thick; W: Halo formation on top, microlonies on bottom.

In experiment [17] the test system is M. luteus. The experiment is described as above. Format: cell-based, Micrococcus luteus. Details: key: A: Peptide aggregates; B: Less hyphal formation; Clumps; Diffuse clumps and small polyps; F: Diffuse growth; H: Thin; I: Growth inhibition; Microcolony formation; Rippled; Small polyps; Thick; W: Halo formation on top, microlonies on bottom.
Experiment [18] deals with MRSA. As to the kind of experiment: MIC (broth microdilution). Format: cell-based, Methicillin-resistant Staphylococcus aureus. Summed up:
as §3

The test system of experiment [19] is P. aeruginosa. Type of experiment: cell-based, Pseudomonas aeruginosa. As for the experimental part:
as §1, §2

In experiment [20] the test system is A. baumannii. The experiment can be described thus: MIC (broth microdilution). Type of experiment: cell-based, Acinetobacter baumannii. The procedure:
as §1, §2

In experiment [21] the test system is C. albicans. The experiment can be described thus: MIC (broth microdilution). Type of experiment: cell-based, Candida albicans. The procedure:
as §1, §2

Experiment [22] concerns BHK-21 (ATCC CRL-10) fibroblasts. As to the kind of experiment: Cytotoxicity, Promega CellTiterGlo assay. Type of experiment: cell-based, hamster. The note with it: BHK, at either 5 min or 24 h, with or without light. The procedure:
Streptococcus oralis ATCC 10557, Streptococcus gordonii (Challis), Streptococcus sanguinis (NY101), Streptococcus mitis ATCC 903, Streptococcus salivarius ATCC 13419 and S. mutans wild-type UA140 and JM11 (spectinomycin-resistant) strains were grown in Todd-Hewitt (TH) broth 37° C. in an anaerobic atmosphere of 80% N2, 10% CO2, and 10% H2. BHK-21 (ATCC CRL-10) fibroblasts were propagated in DMEM with 10% FBS, 1 mM sodium pyruvate, 100 units/mL penicillin G, and 100 μg/mL streptomycin at 37° C. with 5% CO2. Cells were detached with 0.25% trypsin and subcultured as recommended by the supplier.
The effect of RB and C16-RB on […] fibroblasts was ascertained by utilizing the Promega CellTiterGlo assay, as described by the manufacturer. Briefly, fibroblasts were grown to confluence, detached, and seeded to ˜5,000 cells per well in a 96-well opaque walled, clear bottom 96-well plate (Nunc International). For long-term dark toxicity, cells were allowed to attach to for 18 h before the culture medium was replaced with medium plus serially-diluted RB or C16-RB (200 μM to 390 nM) or medium alone. After 18-24 h, equal volume Cell Titer Glo reagent was added to each well and mixed. Luciferace activity was then quantified to measure cell viability (Varian Fluorometer in Biolumenescence mode). To measure cytotoxicity after RB or C16-RB light exposure, cells were seeded at ˜10,000 cells per well and allowed to attach for 4 h. Cell growth medium was then replaced with RB or C16-RB containing medium, prior to exposure (a single well at a time) with blue light (400 mW/cm^2) suspended ˜3 cm from the well bottom. After exposure, cultures were disrupted with Cell Titer Glo and luciferase activity quantitated as above.
A general note: Cellular ATP, detected with luciferase, serves as a proxy for viable cell number.

The subject of experiment [23] is S. mutans. Type of experiment: cell-based, Streptococcus mutans. The settings on record: S. mutans.
Experiment [24] concerns E. coli. The experiment can be described thus: Kill or inhibit growth/proliferation; morphology, biofilm and growth disruption (Tables 5, 6). Type of experiment: cell-based, Escherichia coli. The arrangement: key: A: Peptide aggregates; B: Less hyphal formation; Clumps; Diffuse clumps and small polyps; F: Diffuse growth; H: Thin; I: Growth inhibition; Microcolony formation; Rippled; Small polyps; Thick; W: Halo formation on top, microlonies on bottom.

[25] abbreviates: binding in aqueous buffers depending on peptide solubility.

The results in this text go back to patent US20110039762A1, “TARGETED ANTIMICROBIAL MOIETIES” (C3 JIAN, INC., priority 2009, published 2011).

What is called pIC50 is the IC50 on a negative log10 scale, so that one unit is a factor of ten.

pIC50: −log10 of the molar value. Entries after “also recorded” stand apart in the source; their conditions may differ. Where two headings read alike, the source gives them in different places. Ends that are not written are not given here.

On to FELVDWLETNLGKILKSKSA-NH2 [PF-522], for which the “Organism, effect” value in experiment [1] is “S. pneumoniae (H)”. Further, the MIC entry in experiment [2] is “C. difficile, 25 μM”. For the same substance, the Activities result in experiment [3] is given as “G B M”. In addition, the “Target(s)” value in [4] (peptide binding conducted in aqueous buffers varied by peptide solubility) is reported as “S. epidermidis; also recorded: E. coli; also recorded: P. aeruginosa; also recorded: S. pneumoniae; also recorded: E. faecalis”.
Regarding “GSVIKKRRKRMAKKKHRKLLKKTRIQRRRAGK [PF-527]”, the “Organism, effect” value in [5] was “C. jejuni (M)”; in [7], “MRSA (I)”; in experiment [9], “P. aeruginosa (I)”; in experiment [1], “S. pneumoniae (H)”; in [10], “C. jeikeium (I)”; in [11], “S. epidermidis (M)”. Moreover, the “Organism, effect” value in experiment [13] is “C. albicans (B)”; in [16], “B. subtilis (I)”; in experiment [17] it was “M. luteus (S)”. Besides, the MIC result is “S. epidermidis, 25 μM” in experiment [6]; “B. subtilis, 12.5 μM” in [8]; “C. jeikeium, 6.25 μM” in experiment [12]; “T. rubrum, 25 μM” in [14]; “A. niger, 50 μM” in experiment [15]; “MRSA , 50 μM” in experiment [18]. Moreover, the MIC result in experiment [19] is recorded as “P. aeruginosa, 50 μM”. Further, in experiment [3], the Activities entry was “G B M”.
In the case of KNKKQTDILEKVKEILDKKKKTKSVGQKLY [PF-538], the “Organism, effect” value in [1] is reported as “S. pneumoniae (H)”. Besides, the MIC result in experiment [2] is “C. difficile, 25 μM”; in [20], “A. baumannii, 25 μM”. Moreover, the Activities entry in experiment [3] is “G M”.
As for LSLATFAKIFMTRSNWSLKRFNRL [PF-278], the MIC entry in experiment [6] (S. epidermidis) is listed as “S. epidermidis, 50 μM”; in experiment [21] it was “C. albicans, 50 μM”; in [14], “T. rubrum, 50 μM”. The “Organism, effect” value is “S. epidermidis (I)” in [11], “C. albicans (B)” in experiment [13] and “M. luteus (R)” in [17]. For the same substance, the Activities entry in experiment [3] is given as “G B M”. Besides, in experiment [4] (setting [25]), the “Target(s)” value is “M. luteus; also recorded: A. baumannii”.
With “MKRRRCNWCGKLFYLEEKSKEAYCCKECRKKAKKVKK [PF-307]”, the MIC result in [8] is “B. subtilis, 50 μM”; in experiment [21], “C. albicans, 50 μM”; in [14], “T. rubrum, 50 μM”. The entries for the “Organism, effect” value in experiment [11], in experiment [13] and in [16] were “S. epidermidis (T)”, “C. albicans (B)” and “B. subtilis (H)”, respectively. Also, in experiment [3], the Activities result is “G B M”. The “Target(s)” value in experiment [4] (setting [25]) is reported as “S. epidermidis; also recorded: B. subtilis; also recorded: B. fragilis; also recorded: C. difficile”.
In the case of Melittin B, the pIC50 in experiment [22] was greater than 5.81.
Consider YIQFHLNQQPRPKVKKIKIFL-NH2 [PF-531], for which the MIC result in experiment [6] (S. epidermidis) is listed as “S. epidermidis, 50 μM”; in experiment [8] it was “B. subtilis, 25 μM”; in experiment [23] it was “S. mutans, 12.5 μM”; in experiment [12], “C. jeikeium, 6.25 μM”; in [2], “C. difficile, 12.5 μM”; in [14], “T. rubrum, 50 μM”. Moreover, the MIC entry was “A. niger, 25 μM” in experiment [15]; “A. baumannii, 25 μM” in [20]; “P. aeruginosa, 50 μM” in experiment [19] (P. aeruginosa). In addition, the “Organism, effect” value is given as “P. aeruginosa (I)” in [9], “S. pneumoniae (C)” in experiment [1], “S. epidermidis (I)” in experiment [11] and “E. coli (M)” in experiment [24]. For the same substance, the Activities result in experiment [3] is “G M”.
